Measured values published in publication PMC10753699, “Synthesis of Some New 1,3,4-Oxadiazole Derivatives and Evaluation of Their Anticancer Activity” (ACS Omega, 2023).

Columns and labels:
[1] = system: A549 human lung cancer cell line; experiment: MTT cell viability / cytotoxicity on A549; type: cell-based; conditions: for IC50: Homo sapiens, A549, A549 cell line, MTT, mean ± S.D. of three determinations
Protocol: (§1) In 75 cm^2 sterile plastic tissue culture flasks, the human lung adenocarcinoma A549 and the mouse fibroblast L929 cell lines were cultured in 90% RPMI (Sigma, Deisenhofen, Germany) media supplemented with 10% (v/v) FBS (Gibco, Paisley, UK) and adherent monolayers of penicillin/streptomycin (100 units/mL) from Gibco, Paisley, UK. These cells were cultured at 37 °C in an environment that was humidified and contained 5% CO2.
(§2) The MTT (3-(4,5-dimethylthiazol-2-yl)-2,5-diphenyltetrazolium bromide) method was applicated to assess the cell viability of L929, C6 and A549 cell lines against the tested compounds according to the reported data.[51] In 96-well plates with a flat bottom, the A549, C6, and L929 cells were cultivated at a density of 5 × 10^3 cells per well. […] After addition, they were incubated for a full day in culture wells. Following the incubation period, 20 μL of phosphate-buffered saline (PBS) (Gibco, Paisley, UK) containing 5 mg/mL MTT powder (Sigma-Aldrich, St. Louis, MO, USA) was added to each well. The medium was taken out of the plate and replaced with 100 μL of DMSO in each well to dissolve the dye. This was left for 2 to 4 h under the same conditions and then left for 10 min. At the conclusion of the procedure, purple formazan, the reduction product of the MTT agent, was formed by the mitochondrial dehydrogenase enzyme of intact cells. A microtiter plate reader (BioTek Plate Reader, Winooski, VT, USA) was used to measure the cells at 540 nm. Cell viability was measured as a percentage and contrasted with that of the cells in the control group. Half-maximal inhibitory concentration 50 (IC50) values were determined by repeating each concentration in three wells and identifying the drug concentrations that decreased the absorbance to 50% of control values. The medium control served as the basis for calculating the percentage of viable cells.

C6 rat glioma cell line = experiment: MTT cell viability / cytotoxicity on C6; type: cell-based; conditions: mean ± S.D. of three determinations
Protocol: as §2

[2] = system: L929 murine fibroblast cell line; experiment: MTT cell viability / cytotoxicity on L929 (healthy cells); type: cell-based, mouse; conditions: mean ± S.D. of three determinations
Protocol: as §1, §2

A549 cells [3] = experiment: Early/late apoptosis by Annexin V-FITC/PI flow cytometry; type: cell-based, human; conditions: A549, IC50 dose, 24 h incubation
Protocol: Phosphatidylserine externalization, a marker of early apoptosis, was assessed using the FITC Annexin V apoptosis detection kit (BD Pharmingen, San Jose, CA, USA) on a BD FACSAria flow cytometer. Following their collection, the A549 and L929 cells were twice washed in ice-cold PBS before being resuspended in 100 μL of binding buffer. The cells were treated with a volume of 5 μL (5 μg/mL) of Annexin V-FITC and PI, and they were incubated for 15 min at room temperature (20–25 °C) in the dark. Following that, 400 μL of binding buffer was added to the combination samples, and FACSDiva version 6.1.1 was used to analyze the samples on a BD FACSAria flow cytometer.

caspase-3 = experiment: Caspase-3 activation in A549 cells; type: cell-based, human; conditions: A549, IC50 of the compounds, 24 h
Protocol: The Spectrofluorometric Caspase-3 Assay kit (BD Pharmingen, Franklin Lakes, NJ) was used to assess the activation of caspase-3. The purpose of the kit was to measure the early indicator of cells going through apoptosis, known as caspase-3 or the DEVD-cleaving activity. First, 1 × 10^6 cells/mL of cells were resuspended in cold cell lysis buffer, rinsed with PBS, and then allowed to sit on ice for 30 min. […] In each reaction, a well containing 0.2 mL of 1 x HEPES buffer was filled with […] of reconstituted AcDEVD-AMC, a synthetic tetrapeptide fluorogenic substrate for caspase-3 activity. Each reaction/well received 20 μL of cell lysate. The reaction mixtures were incubated at 37 °C for 1 h. Using a microplate reader (Perkin-Elmer/Victor/X3) with an excitation wavelength of 380 nm and an emission wavelength of 460 nm, the amount of AMC released from Ac-DEVD-AMC was quantified. When compared with controls, apoptotic cell lysates containing active caspase-3 produced a significant emission. […] For all doses, duplicate wells were used. This experiment was performed according to Yurttaş et al.[52]

A549 cells [4] = experiment: Mitochondrial membrane depolarization (JC-1, flow cytometry); type: cell-based, human; conditions: A549, IC50 concentration, 24 h
Protocol: Staining of cells with JC-1 was realized according to the manufacturer’s recommendations of BD, Pharmingen Flow cytometry kit. […] For this purpose, cells were seeded at an optimal density in six-well plates (not exceeding 1 × 10^6/mL cells). The cells were then incubated with the substances to be tested at the appropriate concentration and time. After the treatment, each cell suspension was taken into a 15 mL polystyrene centrifuge tube and the cells were centrifuged at 400g for 5 min and removed from the supernatant. 0.5 mL of a freshly prepared working solution was added to each pellet, and the solution was vortexed. The test cells were soaked in a JC-1 working solution at 37 °C for 10–15 min, and the cells were washed twice. In the first wash, 2 mL of 1X assay buffer was added and the cells were suspended sensitively. Then, the cells were centrifuged at 400g for 5 min and the supernatant was removed, carefully. In the second wash, 1 mL of 1X assay buffer was added and vortexed. After the cells were centrifuged at 400g for 5 min, each cell pellet was suspended in 0.5 mL 1X assay buffer and vortexed. Finally, the cell was analyzed by a flow cytometer.

A549 cells [5] = experiment: Cell cycle analysis by flow cytometry; type: cell-based, human; conditions: A549, 24 h incubation
Protocol: Following a 24 h incubation period with the compounds, a cell cycle analysis measurement methodology was implemented in compliance with the manufacturer’s instructions for A549 cells (BD, Biosciences). Next, the cells were immersed in citrate buffer for a short while. At room temperature, the cells were centrifuged for 5 min at 400 g. After the supernatant was decanted, 250 μL of solution A was added to the pellet, and it was allowed to sit at room temperature for 10 min. Solution B (200 μL) was then added, carefully mixed, and incubated at room temperature for 10 min. Solution C (200 μL) was then added. It was gently mixed, allowed to stand at 4 °C for 10 min in the dark, and then examined using BD Bioscience’s MODFID software on a flow cytometer. This method was applied in our previous study.[54]

MMP-9 enzyme = biological target: T1, MMP-9 enzyme (Homo sapiens, UniProt P14780); experiment: MMP-9 colorimetric inhibition assay; type: biochemical; conditions: for inhibition at 100 µg/mL: at 100 μg/mL
T1 construct: purchased EnzoLife Sciences Inc. (Farmingdale, New York, NY, USA)
From the text: As described in our previous study,[36] the method was applied in exactly the same manner. EnzoLife Sciences Inc. provided MMP-9 colorimetric kits (Farmingdale, New York, NY, USA). The MMP Colorimetric Drug Discovery Kits are a comprehensive test technique that uses a thiopeptide (Ac-PLG-[2-mercapto-4-methyl-pentanoyl]-LG-OC2H5) as a chromogenic substrate to screen MMP inhibitors. Using a microplate reader (BioTek, PowerWave, Gen5 software, Winooski, VT, USA) at room temperature, the UV absorbance was measured at 412 nm. NNGH was employed as an inhibitor of control.

[6] = Mus musculus, L929, L929 healthy cell line

T1 sequence (P14780 107-444 limits assumed): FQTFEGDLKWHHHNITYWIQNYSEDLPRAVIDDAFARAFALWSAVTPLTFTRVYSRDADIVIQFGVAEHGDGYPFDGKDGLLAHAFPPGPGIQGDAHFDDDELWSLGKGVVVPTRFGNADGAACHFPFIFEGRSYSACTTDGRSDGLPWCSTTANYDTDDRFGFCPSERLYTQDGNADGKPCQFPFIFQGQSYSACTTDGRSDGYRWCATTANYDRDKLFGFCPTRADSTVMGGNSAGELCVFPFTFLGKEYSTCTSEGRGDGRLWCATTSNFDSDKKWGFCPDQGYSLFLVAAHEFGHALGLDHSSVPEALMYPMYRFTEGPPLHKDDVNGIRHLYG

IC50 (MMP-9 enzyme) [µM] | inhibition at 100 µg/mL (MMP-9 enzyme) [%] | melting point [°C] | Compound | IC50 [1] [µM] | IC50 (C6 rat glioma cell line) [µM] | IC50 [2, 6] [µM] | Q1: necrotic cells (A549 cells [3]) [%] | Q2: late apoptotic cells (A549 cells [3]) [%] | Q3: viable cells (A549 cells [3]) [%] | Q4: early apoptotic cells (A549 cells [3]) [%] | % (+): caspase-3 activity positive cells (caspase-3) [%] | % (−): caspase-3 activity negative cells (caspase-3) [%] | mitochondrial membrane depolarization % (A549 cells [4]) [%] | mitochondrial membrane polarization % (A549 cells [4]) [%] | % S (A549 cells [5]) [%] | G0/G1% (A549 cells [5]) [%] | G2/M % (A549 cells [5]) [%] | further results
24.5 ± 2.12 | > 75 | 207 to 209 | CC(=O)Nc1ccccc1OCc1nnc(SCC(=O)Nc2nc3ccc(F)cc3s2)o1 [Compound 4f, 2-[(5-((2-Acetamidophenoxy)methyl)-1,3,4-oxadiazol-2-yl)thio]-N-(6-fluorobenzothiazol-2-yl)acetamide] | 6.62 ± 0.32 | 13 ± 3.72 | 19.4 ± 0.89 | 26.25 | 6.7 | 58.53 | 8.51 | 3.4 | 97.1 | 13.03 | 85.97 | 0.0 | 63.53 | 36.47 | –
22 ± 1.41 | > 50 | 210 to 215 | CC(=O)Nc1ccccc1OCc1nnc(SCC(=O)Nc2ccc([N+](=O)[O-])cc2)o1 [Compound 4j, 2-[(5-((2-Acetamidophenoxy)methyl)-1,3,4-oxadiazol-2-yl)thio]-N-(4-nitrophenyl)acetamide] | < 8.8 | > 1000 | < 7.96 | – | – | – | – | – | – | – | – | – | – | – | inhibition of A549 at the lowest concentration tested ([1]; A549, MTT, lowest concentration tested): greater than 50%; SI (L929/A549) ([1]; selectivity index = IC50 on normal cells/IC50 on cancer cells): <1; IC50 ([2]; L929 healthy cell line): < 8.8 µM
1.65 ± 0.21 | > 75 | 188 to 191 | CC(=O)Nc1ccccc1OCc1nnc(SCC(=O)Nc2ccccc2)o1 [Compound 4h, 2-[(5-((2-Acetamidophenoxy)methyl)-1,3,4-oxadiazol-2-yl)thio]-N-phenylacetamide] | < 0.14 | > 1000 | 31.4 ± 1.76 | 26.94 | 7.28 | 53.94 | 11.84 | 2.7 | 97.5 | 8.75 | 90.74 | 0.0 | 89.66 | 10.34 | Q2 + Q4: early and late apoptotic cells (A549 cells [3]): 19.20%
